Assay results published in patent publication US7052676B2, “Methods for inhibition of HIV replication using a small molecule inhibitor” (priority 2000, dated 2006).
“Also recorded” adds a separate entry of the source. Like-named read-outs stand apart in the source and are kept apart here.

How the values were obtained:
MDM = experiment: MTT assay of cellular viability, proliferation and activation in infected MDM; type: cell-based, human
Description: FIG. 3. […] MDM were treated as in FIGS. 1 and 2, and RT activity was measured every three to four days. MDM were also analyzed on day 13 by MTT assay (a measure of cellular viability, proliferation, and activation). Viability and activation was changed by less than 20% at all of the doses evaluated. For each treatment, viral replication was normalized against viability (RT activity/MTT assay) and then expressed relative to the control (no treatment). Data shown are the mean of three experiments;
In a preferred embodiment, the inhibitor is SB225002, a small molecular weight inhibitor that is an antagonist of IL-8 binding to CXCR2. In an alternate preferred embodiment, the inhibitor is antileukinate, a synthetic peptide inhibitor that interferes with both IL-8 and GRO-α binding to receptors. […] Infection of PBL with HIV-1BRU was inhibited by both the small molecule inhibitor, SB225002 (FIG. 29A), and the peptide, antileukinate (FIG. 29B). […] Cellular viability, proliferation, and activation were also analyzed in the infected cells by performing an MTT assay. […] Similarly, doses of antileukinate up to 10^−4 M in PBL and 10^−6 M in MDM reduced cellular viability by not more than 20%, and doses as low as 10^−8 M were effective at inhibiting HIV-1 replication. […]

HIV-1BRU [1] = experiment: HIV-1BRU replication in PHA-activated PBL / T lymphocytes, RT activity in supernatants; type: cell-based; details: for increase of HIV-1BRU replication in PBL by exogenous chemokine, mean over donors: IL-8: 5 donors, CD8-depleted PBL, GRO-α: n=7, p=0.027
Description: (§1) HIV-1 Infection of MDM and PBL: For each experiment, multiple wells of MDM or PBL were infected with equal RT counts of HIV-1 (30–300×10^6 CPM of RT used per 10^5 cells). This amount of CPM of RT activity per cell corresponds to a multiplicity of infection (MOI) of between 0.01 and 0.1 as determined by titration on HOS-CD4-CCR5 and CEM-SS cell lines and quantitation of proviral DNA in PBMC 24 h after infection. MDM were cultured for 3 d prior to infection, washed after an overnight incubation with the virus, and cultured in DME+10% FBS. PHA-activated PBL were washed and incubated in RPMI+10% FBS+IL-2 (40 U/ml) overnight. CD8+cells were depleted with magnetic Dynabeads® M-450 CD8 according to the manufacturer's instructions (Dynal, Lake Success, N.Y.). CD8-depleted PBL were then incubated with HIV-1 for 4 h, washed and incubated in media +IL-2. A portion of the media (25%) was removed from the MDM and PBL supernatants and replaced twice weekly.

HIV-1BaL [2] = experiment: HIV-1BaL replication in monocyte-derived macrophages (MDM), RT activity in supernatants; type: cell-based; details: for increase of HIV-1BaL replication in MDM by exogenous chemokine, mean over donors: IL-8: 17 donors, GRO-α: 5 donors
Description: as §1

PBL = type: cell-based, human
Source text: In a preferred embodiment, the inhibitor is SB225002, a small molecular weight inhibitor that is an antagonist of IL-8 binding to CXCR2. In an alternate preferred embodiment, the inhibitor is antileukinate, a synthetic peptide inhibitor that interferes with both IL-8 and GRO-α binding to receptors. […] Infection of PBL with HIV-1BRU was inhibited by both the small molecule inhibitor, SB225002 (FIG. 29A), and the peptide, antileukinate (FIG. 29B). […] Cellular viability, proliferation, and activation were also analyzed in the infected cells by performing an MTT assay. […] Similarly, doses of antileukinate up to 10^−4 M in PBL and 10^−6 M in MDM reduced cellular viability by not more than 20%, and doses as low as 10^−8 M were effective at inhibiting HIV-1 replication. […] The mean decreases in HIV-1BaL replication in MDM were 4.0±1.3 for 1000 nM SB225002 (p=0.019) and 2.6±0.6 for 10^−6 M antileukinate (p=0.002) relative to controls.

GRO-α production by MDM = type: cell-based, human
HIV-1BaL [3] = experiment: HIV-1BaL replication in activated (CD8-depleted) PBL, RT activity; type: cell-based; details: IL-8: 11 donors; GRO-α: n=6
Description: as §1

HIV-1 = details: R5 and X4 isolates of HIV-1 and HIV-2
Description: Reverse Transcriptase (RT) Assay: HIV replication was determined by quantification of the RT activity present in the supernatants using a poly(A)-oligo(dT) template primer as previously described. […] RT activity was assayed using ^32P-labeled deoxythymidine triphosphate incorporated in DNA bound to DE81 paper (Whatman) and quantified using either the Series 400 PhosphorImager and ImageQuant® software (Molecular Dynamics, Sunnyvale, Calif.) or a Betascope radioisotope imaging system. RT activity is reported as phosphoimager counts except when labeled “counts” to signify beta counts.

HIV-1BRU [4] = experiment: HIV-1BRU (X4) infection of MDM, RT activity; type: cell-based; details: MDM from multiple donors
Description: as §1

IL-8 promoter = IL-8 promoter CAT reporter in transfected U937 cells; type: cell-based, human; details: Tat co-transfection alone, or TNF-α 1 ng/ml alone
Description: Transfection of the U937 Promonocyte Cell Line: U937 cells were transfected by the DEAE-dextran method with 1 μg of HIV-1 Tat (pCG-Tat1) or control vector (pCG) and 10 μg of a plasmid containing the chloramphenicol acetyl transferase (CAT) reporter gene downstream of either sequence which lacks eukaryotic promoter and enhancer sequences (pCAT-Basic, Promega, Madison, Wis.), nucleotides −254 to +19 of the IL-8 promoter (pCAT-IL-8), or the HIV-1-LTR. The cells were either left untreated or treated with TNF-α (1 ng/ml) at 24 hours after transfection and harvested 48 hours after transfection. CAT activity was quantified and normalized for the amount of protein. Values near 6000 represent complete acetylation of chloramphenicol (100%).

monocytes = experiment: Intracellular GRO staining of PBMC (flow cytometry); type: cell-based, human; details: staining after 6 hours
Description: Intracellular cytokine staining: PBMC were collected as described above and cultured in RPMI+10% FBS. The next day, PBMC were treated for 6 h with monensin (GolgiStop™, PharMingen) and incubated with virus, viral proteins, or TNF-α as indicated in the figure legend. PBMC were then collected and stained for the presence of intracellular GRO according to the manufacturer's instructions (PharMingen). Adherent cells were collected by incubation in PBS+10 mM EDTA for 30 min at 4° C. PBMC (both adherent and non-adherent cells) were then incubated in staining buffer (DPBS+1% FBS+0.09% sodium azide) with mouse IgG for 20 min at 4° C. to block non-specific binding of IgG to target cells. After two washes with staining buffer, PBMC were fixed and permeabilized with Cytofix/Cytoperm (PharMingen). PBMC were washed twice in Perm/Wash solution and then stained with either R-phycoerythrin (PE)-conjugated mouse anti-human GRO monoclonal antibody (GRO-PE) or PE-mouse IgG1, κ isotype control immunoglobulin (PharMingen). Analysis of cell staining was performed using an EPICS Elite cell sorter (Beckman-Coulter, Fullerton, Calif.). The monocyte and lymphocyte subpopulations were gated according to the pattern of forward scatter and side scatter.

CD14+ monocytes = experiment: Intracellular IL-8 staining of PBMC (flow cytometry); type: cell-based, human; details: staining after 6 hours; control monocytes 10%
Description: Intracellular Cytokine Staining: PBMC were collected as described above and cultured in RPMI+10% FBS. The next day, PBMC were treated for 6 h with monensin (GolgiStop™, PharMingen) and incubated with virus or TNF-α. PBMC were then collected and stained for the presence of intracellular IL-8 and various cell surface markers according to the manufacturer's instructions (PharMingen). Adherent cells were collected by incubation in PBS+10 mM EDTA for 30 min at 4° C. PBMC (both adherent and non-adherent cells) were incubated in staining buffer (DPBS+1% FBS+0.09% sodium azide) with mouse IgG for 20 min at 4° C. to block non-specific binding of IgG to target cells. PBMC were then washed with staining buffer and stained for cell surface antigens for 30 min at 4° C. using R-phycoerythrin (PE)-conjugated mouse anti-human CD4 (PE-CD4) or CD14 (PE-CD14) monoclonal antibodies or PE-mouse IgG1, κ isotype control immunoglobulin (PharMingen). After two washes with staining buffer, PBMC were fixed and permeabilized with Cytofix/Cytoperm (PharMingen). PBMC were washed twice in Perm/Wash solution and then stained with either fluorescein isothiocyanate (FITC)-conjugated mouse anti-human IL-8 monoclonal antibody or FITC-mouse IgG2a, κ immunoglobulin isotype standard (PharMingen). Analysis of cell staining was performed using an EPICS Elite cell sorter (Beckman-Coulter, Fullerton, Calif.). […]

IL-8 production by MDM = IL-8 production by MDM (ELISA of supernatants); details: added prior to exposure to HIV-1

`O=C(Nc1ccc([N+](=O)[O-])cc1O)Nc1ccccc1Br` [SB225002, N-(2-hydroxy-4-nitrophenyl)-N′-(2-bromophenyl)urea, reference compound] was tested, and the “cellular viability (MTT), effect of the doses used” value (MDM) was “did not negatively affect cellular viability”, the “HIV-1BRU infection/replication in PBL, effect of inhibitor” value (HIV-1BRU [1]; treated every three days from one day before infection, RT activity days 3, 6, 9) was “decreases HIV-1 replication; also recorded: inhibited” and the “mean decrease in HIV-1BaL replication in MDM relative to controls” value (HIV-1BaL [2]; 1000 nM, p=0.019) was 4.0±1.3. The “HIV replication in MDM, effect of inhibitor” value (HIV-1BaL [2]; RT activity normalized against MTT, relative to no treatment, mean of three experiments) was “significantly decrease HIV replication” and the “cellular viability (MTT), effect of the doses used” value (PBL) was “did not negatively affect cellular viability”.

For `O=c1c(-c2ccc(O)cc2)coc2cc(O)cc(O)c12` [genistein], the “HIV-1BRU-induced GRO-α production by MDM, sensitivity to inhibitor” value (GRO-α production by MDM) was “sensitive”.

`CO[C@H]1[C@@H](OC)C[C@H](C)[C@@H](OC)C2=CC(=O)C=C(NC(=O)/C(C)=C/C=C\[C@H](OC)[C@@H](OC(N)=O)/C(C)=C/[C@@H]1C)C2=O` [herbimycin A] was tested, and the “HIV-1BRU-induced GRO-α production by MDM, sensitivity to inhibitor” value (GRO-α production by MDM) was “sensitive”.

For “GRO-α: recombinant C-X-C chemokine growth-regulated oncogene-alpha, ligand of CXCR2”, the “increase of HIV-1BaL replication in PBL by exogenous chemokine, mean over donors” value (HIV-1BaL [3]) was 5 fold, the “increase of HIV-1BRU replication in PBL by exogenous chemokine, mean over donors” value (HIV-1BRU [1]) was 2.4 fold and the “HIV-1BaL replication in MDM, effect of exogenous chemokine” value (from here on “HIV-1BaL replication in MDM, effect”) (HIV-1BaL [2]) was “augmented”. For the same molecule, the “increase of HIV-1BaL replication in MDM by exogenous chemokine, mean over donors” value (HIV-1BaL [2]) was 14 fold, the “replication of other isolates tested, effect of exogenous chemokine” value (HIV-1) was “stimulated the replication of all isolates tested” and the “susceptibility of MDM to productive infection with X4 HIV (HIV-1BRU) with exogenous chemokine” value (HIV-1BRU [4]) was “does not confer susceptibility to productive infection with X4 HIV on MDM”.

“IL-8: recombinant human IL-8, C-X-C chemokine” was tested, and the “increase of HIV-1BaL replication in PBL by exogenous chemokine, mean over donors” value (HIV-1BaL [3]) was 4.8 fold, the “increase of HIV-1BRU replication in PBL by exogenous chemokine, mean over donors” value (HIV-1BRU [1]) was 1.7 fold and the “doses that stimulated viral replication” value (HIV-1BRU [1]; PHA-activated, CD8-depleted PBL (FIG. 8C)) was “exceeding 5 ng/ml”. For the same molecule, the “HIV-1BaL replication in MDM, effect” value (HIV-1BaL [2]) was “augmented”, the “increase of HIV-1BaL replication in MDM by exogenous chemokine, mean over donors” value (HIV-1BaL [2]) was 6.2 fold and the “replication of other isolates tested, effect of exogenous chemokine” value (HIV-1) was “stimulated the replication of all other isolates tested”. The “susceptibility of MDM to productive infection with X4 HIV (HIV-1BRU) with exogenous chemokine” value (HIV-1BRU [4]) was “does not confer susceptibility to productive infection with X4 HIV on MDM”.

With IP-10: CXCR3 ligand, C-X-C chemokine the “HIV-1BRU replication in peripheral blood lymphocytes, effect of exogenous chemokine” value (from here on “HIV-1BRU replication … of exogenous chemokine”) (HIV-1BRU [1]) was “stimulation” and the “HIV-1BaL replication in MDM, effect” value (HIV-1BaL [2]) was “stimulation”.

For SDF-1α, the “GRO-α production by MDM, effect of treatment with the agent alone” value (GRO-α production by MDM) was “not produced”.

With TNF-α the “IL-8 promoter activity, effect of single stimulus” value (IL-8 promoter) was “activated”, the “monocytes in which GRO was present” value (monocytes) was “large percentage of monocytes” and the “CD14+ monocytes in which IL-8 was present” value (CD14+ monocytes) was over 90%.

With polymixin B the “HIV-1BRU-induced GRO-α production by MDM, sensitivity to inhibitor” value (GRO-α production by MDM; supernatants 20 hours after exposure to virus) was “did not prevent the HIV-1BRU-induced increases in GRO-α” and the “HIV-induced IL-8 production by MDM, effect of antibody or agent” value (IL-8 production by MDM) was “did not prevent the HIV-induced increase in IL-8 production”.

B1: I-TAC: CXCR3 ligand, C-X-C chemokine (protein, UniProt O14625 22-94, looked up)
C-X-C motif chemokine 11: FPMFKRGRCLCIGPGVKAVKVADIEKASIMYPSNNCDKIEVIITLKENKGQRCLNPKSKQARLIIKKVERKNF
B1 was tested, and the “HIV-1BRU replication … of exogenous chemokine” value (HIV-1BRU [1]) was “stimulation”.

B2: MIG: CXCR3 ligand, C-X-C chemokine (protein, UniProt Q07325 23-125, looked up)
C-X-C motif chemokine 9: TPVVRKGRCSCISTNQGTIHLQSLKDLKQFAPSPSCEKIEIIATLKNGVQTCLNPDSADVKELIKKWEKQVSQKKKQKNGKKHQKKKVLKVRKSQRSRQKKTT
For B2, the “HIV-1BRU replication … of exogenous chemokine” value (HIV-1BRU [1]) was “stimulation”.

B3: RANTES: C-C chemokine which binds to CCR5 and CCR1 (protein, UniProt P13501 24-91, looked up)
C-C motif chemokine 5: SPYSSDTTPCCFAYIARPLPRAHIKEYFYTSGKCSNPAVVFVTRKNRQVCANPEKKWVREYINSLEMS
With B3 the “GRO-α production by MDM, effect of treatment with the agent alone” value (GRO-α production by MDM) was “nor RANTES, which binds to CCR5 and CCR1, was able to stimulate GRO-α production”.
